≈ marks a conversion by molar mass, not a printed value.
Key:
Format in all cases: cell-based
Escherichia coli = test: In vitro antibacterial activity, dilution in Mueller Hinton Agar (Table I)
Method in brief: (§1)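 MIC read-out. Mueller Hinton medium adjusted to pH 7.4; standard test and scoring conditions.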

Proteus morganii = test: as above; settings: Morganella morganii; strain Valz; Mueller Hinton Agar pH 7.4
Method in brief: as §1

Proteus rettgeri = test: as above; settings: Providencia rettgeri; 'Proteus rettgeri mirabilis' [sic]; Mueller Hinton Agar pH 7.4
Method in brief: as §1

Salmonella = test: as above
Method in brief: as §1

Candida albicans = test: In vitro Anti-Candida activity, dilutions in Sabouraud's Dextrose Agar (Table III); settings: 48 h
Description: All the tests were carried out and (when necessary) scored under standard conditions. "MIC" means "minimum inhibitory concentration."
In vitro Anti-Candida Activity of 2-aminoalkyl-3-phenyl-
indoles of the formula I. Dilutions in Sabouraud's Dextrose
MIC (mcg/ml) after 48 hours

NCc1[nH]c2ccc(Cl)cc2c1-c1ccccc1 [C, 2-(1-aminomethyl)-5-chloro-3-phenylindole]
MIC (Escherichia coli; pH 7.4, strain 777, Mueller Hinton Agar pH 7.4): 3 µg/mL (≈ 11.7 µM) | MIC (Escherichia coli; pH 7.4, strain 1574-1, Mueller Hinton Agar pH 7.4): 3 µg/mL (≈ 11.7 µM) | MIC (Escherichia coli; pH 7.4, strain 4195, Mueller Hinton Agar pH 7.4): 3 µg/mL (≈ 11.7 µM) | MIC (Escherichia coli; pH 7.4, strain 10536, Mueller Hinton Agar pH 7.4): 7.5 µg/mL (≈ 29.2 µM) | MIC (Escherichia coli; pH 7.4, strain JR66, Mueller Hinton Agar pH 7.4): 3 µg/mL (≈ 11.7 µM) | MIC (Proteus morganii): 7.5 µg/mL (≈ 29.2 µM) | MIC (Proteus rettgeri): 7.5 µg/mL (≈ 29.2 µM) | MIC (Salmonella; TYPHI, pH 7.4, B typhi, Mueller Hinton Agar pH 7.4): 3 µg/mL (≈ 11.7 µM) | MIC (Salmonella; pH 7.4, C1 Oao, Mueller Hinton Agar pH 7.4): 3 µg/mL (≈ 11.7 µM) | MIC (Salmonella; pH 7.4, C2 Cuban, Mueller Hinton Agar pH 7.4): 3 µg/mL (≈ 11.7 µM) | MIC (Salmonella; pH 7.4, C2 Napc, Mueller Hinton Agar pH 7.4): 3 µg/mL (≈ 11.7 µM) | MIC (Salmonella; pH 7.4, Salmonella ent. 1, Mueller Hinton Agar pH 7.4): 7.5 µg/mL (≈ 29.2 µM) | MIC (Candida albicans; strain 1, after 48 hours): 75 µg/mL (≈ 292 µM) | MIC (Candida albicans; strain 2, after 48 hours): 75 µg/mL (≈ 292 µM) | MIC (Candida albicans; strain 3, after 48 hours): 75 µg/mL (≈ 292 µM) | MIC (Candida albicans; strain 4, after 48 hours): 37.5 µg/mL (≈ 146 µM) | MIC (Candida albicans; strain 5, after 48 hours): 75 µg/mL (≈ 292 µM) | MIC (Candida albicans; strain 6, after 48 hours): 75 µg/mL (≈ 292 µM) | MIC (Candida albicans; strain 8, after 48 hours): 75 µg/mL (≈ 292 µM) | MIC (Candida albicans; strain 9, after 48 hours): 75 µg/mL (≈ 292 µM) | MIC (Candida albicans; strain 29, after 48 hours): 37.5 µg/mL (≈ 146 µM) | MIC (Candida albicans; strain Atkisson, after 48 hours): 75 µg/mL (≈ 292 µM) | MIC (Candida albicans; strain Bertrand, after 48 hours): 75 µg/mL (≈ 292 µM) | MIC (Candida albicans; strain Bevan, after 48 hours): 75 µg/mL (≈ 292 µM) | MIC (Candida albicans; strain Blunden, after 48 hours): 75 µg/mL (≈ 292 µM) | MIC (Candida albicans; strain Bognay, after 48 hours): 75 µg/mL (≈ 292 µM) | MIC (Candida albicans; strain Boyer, after 48 hours): 75 µg/mL (≈ 292 µM) | MIC (Candida albicans; strain Burke, after 48 hours): 75 µg/mL (≈ 292 µM) | MIC (Candida albicans; strain Burnside, after 48 hours): 75 µg/mL (≈ 292 µM) | MIC (Candida albicans; strain Collins, after 48 hours): 75 µg/mL (≈ 292 µM) | MIC (Candida albicans; strain Fix, after 48 hours): 75 µg/mL (≈ 292 µM) | MIC (Candida albicans; strain Frazier, after 48 hours): 75 µg/mL (≈ 292 µM) | MIC (Candida albicans; strain Fulcher, after 48 hours): 75 µg/mL (≈ 292 µM) | MIC (Candida albicans; strain Gay, after 48 hours): 75 µg/mL (≈ 292 µM) | MIC (Candida albicans; strain Hons, after 48 hours): 75 µg/mL (≈ 292 µM) | MIC (Candida albicans; strain Johnson, after 48 hours): 75 µg/mL (≈ 292 µM) | MIC (Candida albicans; strain Kenndy 2, after 48 hours): 75 µg/mL (≈ 292 µM) | MIC (Candida albicans; strain Kennedy 1, after 48 hours): 37.5 µg/mL (≈ 146 µM) | MIC (Candida albicans; strain Lehtman, after 48 hours): 75 µg/mL (≈ 292 µM) | MIC (Candida albicans; strain Lusk, after 48 hours): 75 µg/mL (≈ 292 µM) | MIC (Candida albicans; strain Merkel, after 48 hours): 75 µg/mL (≈ 292 µM) | MIC (Candida albicans; strain Newcomb, after 48 hours): 37.5 µg/mL (≈ 146 µM) | MIC (Candida albicans; strain Sherod, after 48 hours): 75 µg/mL (≈ 292 µM) | MIC (Candida albicans; strain Shurelli, after 48 hours): 75 µg/mL (≈ 292 µM) | MIC (Candida albicans; strain Sparks, after 48 hours): 75 µg/mL (≈ 292 µM) | MIC (Candida albicans; strain Tyner, after 48 hours): 75 µg/mL (≈ 292 µM)

Reference: US4122034A, “Antimicrobial compositions” (Schering Corporation, priority 1975, dated 1978)
